This is an account of results in US20010051628A1, “METHODS TO MODULATE THE RESISTANCE OF CELLS TO APOPTOSIS MEDIATED BY MUTANT EPIDERMAL GROWTH FACTOR RECEPTORS” (priority 1998, published 2001).

This test relates to caspase-3-like protease. The test can be described thus: Inhibition of caspase activity by pre-incubating cell lysates with inhibitor. In kind it is biochemical, human. The conditions noted are these: 10 μM, lysates pre-incubated at 37° C. for 30 min. As for the experimental part: (A) Total cell lysates were prepared 2 days after treatment with 5 μg/ml CDDP. Samples were assayed for protease activity using the peptide substrate, Ac-DEVD-pNA. […] Cells were also treated with the plasma membrane-soluble caspase inhibitor Z-Asp-CH2DCB (200 μM) prior to and during CDDP treatment. □, U87MG; ▪, U87MG.ΔEGFR;_, U87MG.DK;_, U87MG.wtEGFR. […] (B) Proteolytic cleavage of PARP after CDDP treatment. For each sample, 20 μg total clarified protein lysate was loaded on to SDS-PAGE gels, electrophoresed, transferred to membranes and probed with anti-PARP monoclonal antibodies. FL, full-length; CF, cleaved fragment.
Cells were lysed in lysis buffer (ApoAlert, Clontech, Palo Alto, Calif.) for 15 min on ice, followed by centrifugation. Protease assays included 89 μl of reaction buffer (100 mM HEPES, pH 7.5, 20% v/v glycerol, 6 mM dithiothreitol, and 0.5 mM EDTA), I μl of 10 mM acetyl-Asp-Glu-Val-Asp-p-nitroanilide (Ac-DEVD-pNA) in DMSO (California Peptide Research, Inc., Napa, Calif.), and 10 μl of equal protein cell lysate. Samples were incubated at 37° C., and enzyme-catalyzed release of p-nitroanilide (pNA) was monitored at […] for 1 h in a microtiter plate reader (Molecular Devices Inc., Sunnyvale, Calif.). […] Values for picomoles of pNA released were calculated from those observed in OD405 values using a standard curve of pNA. […]

With “Ac-Asp-Glu-Val-Asp-aldehyde (Ac-DEVD-aldehyde) [Ac-DEVD-CHO]”, the “effect on increased caspase activities of lysates from CDDP-treated cells” value was “completely abolished”.
